Measurements published in patent publication US20090023933A1, “METHOD FOR ISOLATING ACIDS FROM CHEMICAL REACTION MIXTURES BY USING 1-ALKYLIMIDAZOLES” (BASF Aktiengesellschaft, priority 2003, published 2009).

Test: Behavior of the 1-alkylimidazoles toward 30% strength NaCl solution (shaking funnel, phase separation, Karl-Fischer and GC analysis)
Conditions: for Solubility of free base in NaCl solution in %: free 1-alkylimidazole, 5 g imidazole shaken with 5 g solution of 30 g NaCl in 100 g water, lower phase extracted, GC with internal standard; for Solubility of water in imidazole in %: water determination on upper (imidazole) phase by Karl-Fischer titration after shaking with NaCl solution
Procedure: A solution of 30 g of sodium chloride in 100 g of demineralized water was prepared. 5 g of this solution were admixed with 5 g of the imidazole derivative listed in a shaking funnel and the mixture was shaken vigorously. The phases were then separated and weighed.
The weight of the upper phase was recorded.
For the purposes of analysis, a water determination was carried out on the upper phase (by Karl-Fischer titration). The lower phase was, if present, separated off, admixed with 1N KOH solution and extracted twice with xylene. After drying over magnesium sulfate, an internal standard (heptadecane) was added and the amount of dissolved imidazole was backcalculated after GC analysis.

Row | Solubility of free base in NaCl solution in % [%] | Solubility of water in imidazole in % | Compound
1 | 100 | ca. 50% | CCn1ccnc1 [Et (comp.)]
2 | 100 | ca. 50% | Cn1ccnc1 [Me (comp.)]
3 | 0.2 | 16% | CCCCn1ccnc1 [nBu, n-butylimidazole]
4 | 3 | 30% | CCCn1ccnc1 [nPr, n-propylimidazole]
